Reference: paper PMC7762957, “Snapshots during the catalytic cycle of a histidine acid phytase reveal an induced-fit structural mechanism” (The Journal of Biological Chemistry, 2020)

Legend:
BtMINPP = target: T1, BtMINPP (Bacteroides thetaiotaomicron, UniProt Q89YI8); assay: HPLC of inositol polyphosphate products; assay type: biochemical; conditions: pH 5.5, 200 mM sodium acetate, 150 mM NaCl; 1 mM substrate, 25 nM enzyme
T1 construct: gene BT_4744
T1 sequence (Q89YI8 21-425): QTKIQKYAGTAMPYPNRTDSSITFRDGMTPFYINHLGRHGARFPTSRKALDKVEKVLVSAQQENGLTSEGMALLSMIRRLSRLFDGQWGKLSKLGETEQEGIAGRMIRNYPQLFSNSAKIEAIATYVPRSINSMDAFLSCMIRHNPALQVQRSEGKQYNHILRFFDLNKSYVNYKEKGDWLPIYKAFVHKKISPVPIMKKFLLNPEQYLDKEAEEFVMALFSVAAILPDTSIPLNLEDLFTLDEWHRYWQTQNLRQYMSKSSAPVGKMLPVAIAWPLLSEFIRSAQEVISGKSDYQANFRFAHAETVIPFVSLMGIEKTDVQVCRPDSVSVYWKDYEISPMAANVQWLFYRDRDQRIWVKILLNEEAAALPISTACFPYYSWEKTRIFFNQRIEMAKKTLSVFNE

AnPhyA = target: T2, AnPhyA (Aspergillus niger, UniProt P34752); assay: HPLC of inositol polyphosphate products; assay type: biochemical; conditions: pH 5.5, 200 mM sodium acetate, 150 mM NaCl; 1 mM substrate, 25 nM enzyme
T2 construct: gene phyA; codon-optimised, N-terminal 3C site, C-terminal His6; secreted from Pichia pastoris KM71H; Ni-NTA purified
T2 sequence (P34752 24-467): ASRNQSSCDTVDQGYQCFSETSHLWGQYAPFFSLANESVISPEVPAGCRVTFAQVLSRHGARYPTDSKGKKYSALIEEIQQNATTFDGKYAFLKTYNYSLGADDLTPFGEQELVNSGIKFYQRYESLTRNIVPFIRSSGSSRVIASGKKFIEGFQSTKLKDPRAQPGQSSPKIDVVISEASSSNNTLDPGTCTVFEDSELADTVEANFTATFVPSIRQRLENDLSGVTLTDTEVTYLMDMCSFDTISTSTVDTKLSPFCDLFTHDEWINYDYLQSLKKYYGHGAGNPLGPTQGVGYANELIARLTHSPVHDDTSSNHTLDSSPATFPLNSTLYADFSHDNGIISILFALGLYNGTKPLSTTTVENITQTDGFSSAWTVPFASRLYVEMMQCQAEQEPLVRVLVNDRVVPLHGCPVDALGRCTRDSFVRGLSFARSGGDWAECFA

EcAppA = target: T3, EcAppA (Escherichia coli, UniProt P07102); assay: HPLC of inositol polyphosphate products; assay type: biochemical; conditions: pH 5.5, 200 mM sodium acetate, 150 mM NaCl; 1 mM substrate, 25 nM enzyme
T3 construct: gene appA; pOPINB, N-terminal cleavable His tag, cytoplasmic expression in E. coli Shuffle Express T7; Ni-NTA and gel filtration
T3 sequence (P07102 23-432): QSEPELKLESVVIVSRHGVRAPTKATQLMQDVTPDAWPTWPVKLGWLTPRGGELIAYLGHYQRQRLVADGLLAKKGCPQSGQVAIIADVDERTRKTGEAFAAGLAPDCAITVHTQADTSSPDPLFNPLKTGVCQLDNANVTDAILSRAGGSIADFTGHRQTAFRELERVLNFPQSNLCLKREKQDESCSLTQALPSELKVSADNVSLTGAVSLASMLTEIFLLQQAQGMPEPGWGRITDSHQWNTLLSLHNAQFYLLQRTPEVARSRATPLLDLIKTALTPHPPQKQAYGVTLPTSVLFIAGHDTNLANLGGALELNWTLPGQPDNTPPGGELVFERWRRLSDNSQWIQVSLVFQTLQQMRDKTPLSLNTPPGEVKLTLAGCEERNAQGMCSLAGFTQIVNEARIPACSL

BlMINPP = BlMINPP (Bifidobacterium longum, UniProt B7GTV0); assay: X-ray crystal structure of complex, […] A; assay type: binding; design: gene Blon_0263; N-terminal His6 tag cleaved (WT: pOPINF, 3C protease; variants: pET28a, thrombin); E. coli Rosetta(DE3) pLysS; conditions: non-hydrolysable substrate analogue in active site, two orientations; co-crystallised with 1 mM InsS6
purified protein = substrate: O=P(O)(O)O[C@H]1[C@H](OP(=O)(O)O)[C@@H](OP(=O)(O)O)[C@H](OP(=O)(O)O)[C@@H](OP(=O)(O)O)[C@H]1OP(=O)(O)O; assay: purified protein; conditions: pH 5.5, 200 mM sodium acetate, 0.15 M NaCl, room temperature, 25 nM enzyme

**Q.** For `O=P(O)(O)O[C@H]1[C@H](OP(=O)(O)O)[C@@H](OP(=O)(O)O)[C@H](OP(=O)(O)O)[C@@H](OP(=O)(O)O)[C@H]1OP(=O)(O)O` [InsP6, myo-Inositol 1,2,3,4,5,6-hexakisphosphate], which “HPLC of inositol polyphosphate products” value (BtMINPP) is on record?
**A.** HPLC chromatograms of the products of InsP6 hydrolysis by BlMINPP, BtMINPP

**Q.** And the “HPLC of inositol polyphosphate products” value (AnPhyA)?
**A.** products of InsP6 hydrolysis by BlMINPP, BtMINPP, A. niger PhyA (AnPhyA)

**Q.** And the “HPLC of inositol polyphosphate products” value (EcAppA)?
**A.** E.coli AppA, which is accepted to possess high positional specificity

**Q.** With `O=S(=O)(O)O[C@H]1[C@H](OS(=O)(=O)O)[C@@H](OS(=O)(=O)O)[C@H](OS(=O)(=O)O)[C@@H](OS(=O)(=O)O)[C@H]1OS(=O)(=O)O` [InsS6] as the molecule, how does the “X-ray crystal structure of complex, 1.84 A” value (BlMINPP) read?
**A.** A crystal of the purified recombinant enzyme grown in the presence of an excess InsS6

B1: BlMINPP (Bifidobacterium longum subsp. infantis ATCC 15697 = JCM 1222 = DSM 20088) (protein)
chain: MEADGRYYSSKQPYVAPNDATASSYSKAPKGYGPIYTESMARHGSRGLSSYKYDALLMRMAETAARDGGFKSEAIKAEFVKNLSGITAANVENGYGMLTGQGAQQHYGIGERAYQRNRSLFDQAAADGGTIAYQSSGEARATESGENFEKGFNEASGGRLIGNVSAPTNPADSGNGKDFQKNPDTLYFHKVQNPDGTSKVPGTKAYDIANNYQNFVANDATIAGAEKTIGDNVDVKRASHDLLSQIFTEEFLAKLENGEYKWYNTTDGTKKGGKNCAPGADASKDPDACGEVSKKIKSEYDAAMDLYNLYIIAADMHNENTGDHTFAFDQYFQGAYADDARMFAWALDAEDFYEKGPSYAGQNETYSIAQPLLDDFLNTIDARVNGGSTVATFRFAHAETMMPFAALLGLPGSTQQAPASTTDVYTYGNNEWRGESVTPMAANVQWDVYARKGEDPATGQRYTPIVRMLYNENEVPFRSECTPVADGSTWYKLTELKSCLAADHKTLGQDARI
**Q.** B1 was tested. Which Km (purified protein) did it give?
**A.** 54.5 ± 8.4 µM

**Q.** And the kcat (purified protein)?
**A.** 46.8 s⁻¹

**Q.** And the kcat/Km (purified protein)?
**A.** 900000 M⁻¹ s⁻¹
